Assay results as given in ChEMBL document CHEMBL1201862, “PubChem BioAssay data set” (2004).
Calls of active or inactive are those of the source.

Experiments:
[1] = Luminescence-based dose response cell-based high throughput screening assay for cytotoxic compounds using the IEC-6 intestinal epithelial cell line. [Related pubchem assays: 1858 (Summary AID.), 1825 (Counterscreen.), 1907 (Confirmation screen.)]; type: functional
[2] = Trypanosoma cruzi growth suppression in host cells – NIH3T3 host cells, beta-gal luminescence, confirmation (AID 2044); type: functional, cell-based;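 also: intracellular parasites grown in NIH/3T3 mouse fibroblasts as host cells; luminescent beta-galactosidase reporter signal from transgenic T. cruzi replicating inside host cells; inhibitors lower the luminescence signal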
[3] = molecular target: T1, Short transient receptor potential channel 4 (Mus musculus, UniProt Q9QUQ5); experiment: calcium entry via TRPC4 opening agents – cell-based, HEK293 TRPC4/mu-opioid, Fluo-4 calcium, dose response (AID 434937); type: functional
T1 sequence (Q9QUQ5 whole entry): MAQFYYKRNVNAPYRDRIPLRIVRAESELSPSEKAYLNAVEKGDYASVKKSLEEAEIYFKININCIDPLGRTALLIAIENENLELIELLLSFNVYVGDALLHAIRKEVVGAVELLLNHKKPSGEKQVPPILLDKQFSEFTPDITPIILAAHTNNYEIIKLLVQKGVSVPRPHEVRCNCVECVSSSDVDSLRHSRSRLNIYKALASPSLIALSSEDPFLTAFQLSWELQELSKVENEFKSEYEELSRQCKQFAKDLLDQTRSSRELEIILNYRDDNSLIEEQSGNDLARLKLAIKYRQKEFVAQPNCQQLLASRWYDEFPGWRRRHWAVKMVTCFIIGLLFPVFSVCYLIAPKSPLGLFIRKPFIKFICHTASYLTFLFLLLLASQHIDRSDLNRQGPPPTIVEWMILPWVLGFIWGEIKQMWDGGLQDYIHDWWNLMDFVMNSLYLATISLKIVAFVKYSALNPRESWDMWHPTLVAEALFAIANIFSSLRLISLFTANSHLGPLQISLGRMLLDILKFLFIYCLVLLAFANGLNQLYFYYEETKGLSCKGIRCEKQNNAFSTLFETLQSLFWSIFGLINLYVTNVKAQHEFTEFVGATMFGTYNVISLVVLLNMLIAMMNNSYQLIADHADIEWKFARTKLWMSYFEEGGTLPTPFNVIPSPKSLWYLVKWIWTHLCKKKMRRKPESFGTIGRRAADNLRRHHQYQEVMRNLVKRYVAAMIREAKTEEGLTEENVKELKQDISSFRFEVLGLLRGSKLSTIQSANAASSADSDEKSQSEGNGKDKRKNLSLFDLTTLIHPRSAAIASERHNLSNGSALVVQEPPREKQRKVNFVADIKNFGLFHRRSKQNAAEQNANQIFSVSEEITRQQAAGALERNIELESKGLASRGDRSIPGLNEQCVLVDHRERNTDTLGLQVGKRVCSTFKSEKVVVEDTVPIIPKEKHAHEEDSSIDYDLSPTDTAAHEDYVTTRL

[4] = NIH3T3 cell viability loss – ATP luminescence, mouse fibroblasts, counter-screen, dose response (AID 2010); type: functional, cell-based;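 also: cells exposed to compound for about 90 hours before reading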
[5] = molecular target: T2, Heat shock protein HSP 90-alpha (Homo sapiens, UniProt P07900); experiment: Luminescence-based dose response biochemical high throughput screening assay for inhibitors of the Heat Shock Protein 90 (HSP90). [Related pubchem assays: 1831 (Summary AID.), 1846 (Confirmation screen.), 1789 (Primary screen.)]
[6] = molecular target: T3, Small ubiquitin-related modifier 1 (Homo sapiens, UniProt P63165); experiment: SUMO1 protein-protein binding blockers, potency – biochemical, FRET, dose response (AID 624383); type: functional; conditions: read-out: IC50_Mean
T3 sequence (P63165 whole entry): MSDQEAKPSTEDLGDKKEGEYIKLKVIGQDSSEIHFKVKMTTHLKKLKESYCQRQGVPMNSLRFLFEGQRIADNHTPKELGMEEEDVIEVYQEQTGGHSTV

[7] = molecular target: T4, Dual specificity protein phosphatase 6 (Rattus norvegicus, UniProt Q64346); experiment: inhibition of rat DUSP6 enzyme activity – biochemical, in vitro, primary screen (AID 425)
T4 sequence (Q64346 whole entry): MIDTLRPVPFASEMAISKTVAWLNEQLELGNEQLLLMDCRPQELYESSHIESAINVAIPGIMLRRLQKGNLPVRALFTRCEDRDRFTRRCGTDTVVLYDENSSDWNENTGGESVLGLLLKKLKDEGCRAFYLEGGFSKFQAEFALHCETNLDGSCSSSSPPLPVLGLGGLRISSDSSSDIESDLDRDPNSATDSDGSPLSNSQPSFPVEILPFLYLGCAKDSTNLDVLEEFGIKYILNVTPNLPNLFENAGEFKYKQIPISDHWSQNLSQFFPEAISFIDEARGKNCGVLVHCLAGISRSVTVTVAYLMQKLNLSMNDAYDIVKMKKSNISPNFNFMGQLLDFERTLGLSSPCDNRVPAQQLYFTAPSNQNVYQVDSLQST

Bcl-2-related protein A1 = molecular target: T5, Bcl-2-related protein A1 (Mus musculus, UniProt Q07440); experiment: displacement of Bid BH3 peptide from Bfl-1 – biochemical, fluorescence polarization, FITC-Bid, mouse, primary screen (AID 432)
T5 sequence (Q07440 whole entry): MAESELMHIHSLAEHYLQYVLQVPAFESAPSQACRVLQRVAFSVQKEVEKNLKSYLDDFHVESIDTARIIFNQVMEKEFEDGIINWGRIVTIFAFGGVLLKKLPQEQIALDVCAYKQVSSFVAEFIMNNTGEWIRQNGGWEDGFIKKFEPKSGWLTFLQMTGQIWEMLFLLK

[8] = molecular target: T3, Small ubiquitin-related modifier 1; experiment: SUMO1 protein interaction blockers, potency – biochemical, fluorescence polarization, uHTS hits, dose response (AID 624382); type: functional; conditions: read-out: IC50_Mean
[9] = molecular target: Neuropeptide Y receptor type 1 (Homo sapiens, UniProt P25929); experiment: IC50 of human NPY-Y1 blockers – cell-based, dose response (AID 1277); type: functional
Chain of Neuropeptide Y receptor type 1 (P25929 whole entry): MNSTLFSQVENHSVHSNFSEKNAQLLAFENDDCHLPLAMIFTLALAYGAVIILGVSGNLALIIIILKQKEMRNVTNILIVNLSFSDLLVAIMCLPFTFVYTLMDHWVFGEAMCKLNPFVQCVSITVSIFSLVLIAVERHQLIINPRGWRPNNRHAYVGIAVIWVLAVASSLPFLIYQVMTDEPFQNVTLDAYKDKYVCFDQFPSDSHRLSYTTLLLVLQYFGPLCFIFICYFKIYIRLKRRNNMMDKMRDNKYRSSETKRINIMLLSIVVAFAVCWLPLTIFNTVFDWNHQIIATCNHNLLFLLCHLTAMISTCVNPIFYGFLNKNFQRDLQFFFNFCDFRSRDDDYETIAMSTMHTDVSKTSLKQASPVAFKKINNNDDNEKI

Protein Tat = Protein Tat (Human immunodeficiency virus type 1 group M subtype B (isolate HXB2)(HIV-1), UniProt P04608); type: functional;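 also: tat binding to TAR RNA read out by fluorescence polarization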
Chain of Protein Tat (P04608 whole entry): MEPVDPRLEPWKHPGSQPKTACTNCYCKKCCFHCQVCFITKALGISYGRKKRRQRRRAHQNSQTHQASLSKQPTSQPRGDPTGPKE

[10] = molecular target: T2, Heat shock protein HSP 90-alpha; type: functional, organism-based
[11] = viability loss in THP-1 monocytes – THP-1 cells, cytotoxicity control for Vif-APOBEC3G degradation inhibitor project, dose response (AID 1117359); type: functional; conditions: THP-1
[12] = Luminescent dose response cell-based high throughput screening assay for inhibitors of the Janus kinase 2 mutant JAK2V617F. [Related pubchem assays: 1446 (Primary screen.), 1521 (Confirmation assay.), 1486 (Counter screen.)]; type: functional
[13] = Luminescence Cell-Based Dose Response to Identify Activators of Luciferase Translation or Activity in H4-C Neuroglioblastoma Cells. [Related pubchem assays: 1829 (Project Summary), 1814 (Primary HTS)]; type: functional
[14] = Luminescence Cell-Based Dose Response HTS to Identify Activators of Luciferase Translation or Activity in H4 […] Cells. [Related pubchem assays: 1829 (Project Summary), 1814 (Primary HTS)]; type: functional
[15] = viability of uninfected HEp-2 cells – cell-based, HTS, cytotoxicity control for RSV inhibitor project, dose response (AID 2410); type: functional; conditions: human respiratory syncytial virus
[16] = Luminescence Cell-Based Dose Response to Identify Activators of 5'UTR Stem-Loop Driven Prion Protein mRNA Translation in H4-C Neuroglioblastoma Cells. [Related pubchem assays: 1829 (Project Summary), 1814 (Primary HTS)]; type: functional
[17] = Luminescence Cell-Based Dose Confirmation to Identify Activators of 5'UTR Stem-Loop Driven Alpha-Synuclein mRNA Translation in H4 Neuroglioblastoma Cells. [Related pubchem assays: 1829 (Project Summary), 1814 (Primary HTS)]; type: functional
Large T antigen = Large T antigen (Simian virus 40, UniProt P03070); type: functional, Betapolyomavirus macacae;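 also: Confirmatory-stage PubChem screen for compounds that inhibit SV40 T antigen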
Chain of Large T antigen (P03070 whole entry): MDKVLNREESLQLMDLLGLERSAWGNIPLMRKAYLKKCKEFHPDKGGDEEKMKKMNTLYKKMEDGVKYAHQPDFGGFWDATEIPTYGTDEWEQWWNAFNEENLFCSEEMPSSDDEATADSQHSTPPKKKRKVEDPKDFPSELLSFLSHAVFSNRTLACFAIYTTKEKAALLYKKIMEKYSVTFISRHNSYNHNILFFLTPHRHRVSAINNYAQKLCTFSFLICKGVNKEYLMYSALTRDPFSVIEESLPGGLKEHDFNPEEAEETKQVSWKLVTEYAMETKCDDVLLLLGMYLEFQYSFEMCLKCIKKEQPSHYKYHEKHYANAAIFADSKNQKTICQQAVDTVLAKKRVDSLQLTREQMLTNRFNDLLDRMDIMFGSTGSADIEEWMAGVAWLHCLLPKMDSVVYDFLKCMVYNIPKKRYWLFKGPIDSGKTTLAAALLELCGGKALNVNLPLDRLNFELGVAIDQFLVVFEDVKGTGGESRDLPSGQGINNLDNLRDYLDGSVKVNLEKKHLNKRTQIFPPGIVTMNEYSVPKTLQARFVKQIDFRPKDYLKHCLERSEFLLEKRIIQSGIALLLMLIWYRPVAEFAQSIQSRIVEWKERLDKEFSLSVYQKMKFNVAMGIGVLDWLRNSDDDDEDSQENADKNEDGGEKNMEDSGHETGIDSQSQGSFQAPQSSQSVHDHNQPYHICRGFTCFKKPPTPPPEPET

[18] = Luminescence Cell-Based Dose Confirmation HTS to Identify Activators of 5'UTR Stem-Loop Driven Alpha-Synuclein mRNA Translation in H4 Neuroglioblastoma Cells. [Related pubchem assays: 1829 (Project Summary), 1814 (Primary HTS)]; type: functional
[19] = molecular target: Induced myeloid leukemia cell differentiation protein Mcl-1 (Homo sapiens, UniProt Q07820); type: functional
Chain of Induced myeloid leukemia cell differentiation protein Mcl-1 (Q07820 whole entry): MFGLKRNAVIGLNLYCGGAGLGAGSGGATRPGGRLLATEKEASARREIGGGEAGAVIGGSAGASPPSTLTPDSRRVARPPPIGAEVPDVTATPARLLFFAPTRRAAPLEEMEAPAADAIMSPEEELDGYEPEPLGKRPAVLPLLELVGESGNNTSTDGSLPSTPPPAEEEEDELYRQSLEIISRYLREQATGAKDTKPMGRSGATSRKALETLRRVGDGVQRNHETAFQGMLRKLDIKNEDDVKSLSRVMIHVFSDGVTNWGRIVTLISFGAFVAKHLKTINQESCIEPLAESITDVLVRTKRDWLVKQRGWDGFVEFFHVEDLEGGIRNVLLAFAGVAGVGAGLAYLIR

H4 = experiment: Luminescence Cell-Based Dose Response HTS to Identify Activators of 5'UTR Stem-Loop Driven Prion Protein mRNA Translation in H4 Neuroglioblastoma Cells. [Related pubchem assays: 1829 (Project Summary), 1814 (Primary HTS)]; type: functional; conditions: Homo sapiens
[20] = Dd2 parasite growth inhibition in erythrocytes – SYBR Green, dry powder samples, set 9, dose response (AID 1159568); type: functional, cell-based
[21] = toxicity to human hepatoma HepG2 cells – cell-based, cherry-picked samples, cytotoxicity control, dose response (AID 1159577); type: functional
[22] = P. falciparum Dd2 growth inhibitors, dose response, SYBR Green, cherry-picked samples (AID 1159567); type: functional, cell-based

N=C(N)Nc1ccc(NC(=N)N)cc1
IC50 [1]: 1.8 µM (active)

Cc1ccc2oc(=O)c3cnn(CC(=O)NC4CCN(Cc5ccccc5)CC4)c3c2c1
EC50 [2]: < 0.1 µM (active)
EC50 [3]: 2.11 µM (active)
EC50 [4]: > 60 µM (not active)
EC50 (cells): 0.079 µM (active)

COC(=O)c1ccc(COc2ccc3c(C)c(C)c(=O)oc3c2)o1
IC50 [5]: 1.07 µM (active)

Nc1ccc2ncccc2c1N
IC50 [6]: 3.21 µM (active)
IC50 [7]: > 10 µM (not active)
IC50 (Bcl-2-related protein A1): 3.49 µM (active)
IC50 [8]: > 66.6 µM (inactive)

CCc1cc(-c2n[nH]cc2-c2ccc3c(c2)OCO3)c(O)cc1O
IC50 [9]: 13.3 µM (not active)

O=C(Nc1nc(-c2ccco2)c(-c2ccco2)s1)c1ccco1
IC50 (Protein Tat): > 100 µM (active)
AC50 [10]: 5.17 µM (active)
CC50 [11]: > 40 µM (active)

CCCn1c(CN(C)Cc2ccccc2)nc2c1c(=O)n(C)c(=O)n2C
IC50 [12]: 4.92 µM (active)

COc1ccc(CCN2C(=O)CC(Nc3ccc(N4CCOCC4)cc3)C2=O)cc1OC (stereo unspecified)
IC50 (Protein Tat): 18.8 µM (inconclusive)

COC(=O)C1CCN(C(=O)c2ccc3nc(-c4cccc(OC)c4)oc3c2)CC1
IC50 [5]: 1.05 µM (active)

O=C(Nc1nc(-c2ccc3c(c2)OCCO3)cs1)C1CCCC1
EC50 [13]: 0.27 µM (active)
EC50 [14]: < 0.1 µM (inconclusive)
CC50 [15]: 21 µM (active)
EC50 [16]: 0.365 µM (active)
EC50 [17]: 0.247 µM (active)

Cc1ncc(CN2CCCC(CCC(=O)NCc3ccccc3F)C2)s1 (stereo unspecified)
EC50 [2]: < 0.1 µM (active)
EC50 [4]: > 60 µM (not active)
EC50 (cells): 0.099 µM (active)

Cc1oc2c(O)c(O)ccc2c(=O)c1-c1cnn(-c2ccccc2)c1
IC50 [12]: 2.04 µM (active)
IC50 (Large T antigen): 10.2 µM (active)

Oc1ccc(-c2csc(Nc3ncccn3)n2)cc1O
EC50 [13]: > 12 µM (not active)
EC50 [14]: 3.45 µM (active)
IC50 (Large T antigen): 14 µM (active)
EC50 [18]: 0.1 µM (active)
IC50 [19]: 3.52 µM (active)
EC50 [16]: 0.815 µM (active)
EC50 [17]: 0.67 µM (active)
EC50 (H4): 0.125 µM (active)

COc1ccc(S(=O)(=O)Nc2ccc3c(c2)C(=O)N([C@H](C)CO)C[C@@H](C)[C@H](CN(C)Cc2ccc(C(F)(F)F)cc2)OCCCC[C@@H](C)O3)cc1
AC50 [20]: 3.69 µM (active)

C[C@@H]1CN([C@@H](C)CO)S(=O)(=O)c2ccc(/C=C/c3ccccc3)cc2O[C@@H]1CN(C)C(=O)Nc1ccc(F)cc1
AC50 [21]: 25.5 µM (active)
AC50 [22]: 5.09 µM (active)

C[C@H]1CCCCO[C@H](CN(C)S(=O)(=O)c2ccc(F)cc2)[C@@H](C)CN([C@@H](C)CO)C(=O)c2cc(N(C)C)ccc2O1
AC50 [20]: 4.91 µM (active)

CCCc1cn(CC[C@H]2CC[C@@H](NS(=O)(=O)c3ccc(-c4ccccc4)cc3)[C@H](CO)O2)nn1
AC50 [21]: 14.8 µM (active)
AC50 [22]: 1.31 µM (active)
